Entries after “also recorded” stand apart in the source; their conditions may differ.
Legend:
[1] = system: influenza virus A/Udorn/72 strain (H3N2); assay: MDCK cell-based plaque reduction assay, influenza A/Udorn/72; conditions: for anti-influenza inhibitory activity (result in words) / inhibition to influenza virus at 100 μM / fold improvement of inhibitory activity over HTS hit P114F5: A/Udorn/72 (H3N2); for anti-influenza inhibitory activity (result in words): authors' description of the EC50 data; for EC50: influenza virus A/Udorn/72 strain (H3N2), 50% reduction of plaques in MDCK cells; for inhibition to influenza virus at 100 μM: at a concentration of 100 μM; for fold improvement of inhibitory activity over HTS hit P114F5: compared to P114F5
[2] = system: Influenza A/PR/8/34 (H1N1); assay: MDCK cell-based plaque reduction assay, influenza A/PR/8/34; conditions: Influenza A virus, H1N1|PR/8, MDCK
[3] = system: Influenza A1/Jingfang 86-1(H1N1); assay: MDCK cell-based plaque reduction assay, influenza A1/Jingfang 86-1; conditions: Influenza A virus
[4] = system: Influenza A3/Lufang 93-1(H3N2); assay: MDCK cell-based plaque reduction assay, influenza A3/Lufang 93-1; conditions: Influenza A virus
Influenza B/Shenzhen/747 = assay: MDCK cell-based plaque reduction assay, influenza B/Shenzhen/747; conditions: Influenza B virus
[5] = system: influenza A/udorn/72 (H3N2); type: cell-based, influenza A virus
[6] = system: Madin-Darby canine kidney (MDCK) cells; assay: MTT cytotoxicity assay in MDCK cells; type: cell-based; conditions: 24 h, mean ± SD of triplicates
[7] = system: human embryonic kidney cells (HEK293 cells); assay: MTT cytotoxicity assay in HEK293 cells; type: cell-based; conditions: HEK 293 cells, 24 h, mean ± SD of triplicates
[8] = system: human epithelial carcinoma cell line (HeLa cells); assay: MTT cytotoxicity assay in HeLa cells; type: cell-based; conditions: 24 h, mean ± SD of triplicates
[9] = system: MDCK cells, HEK293 cells and HeLa cells; assay: MTT cytotoxicity, three cell lines; type: cell-based

## CCOC(=O)N1CCC(Nc2ccnc3ccccc23)CC1 [Compound 6b, Ethyl 4-(quinolin-4-ylamino)piperidine-1-carboxylate]
[1]
  anti-influenza inhibitory activity (result in words): moderate inhibitory activity

## c1ccc2c(OC3CCNCC3)ccnc2c1 [Compound 11h, 4-(Piperidin-4-yloxy)quinolone]
[1]
  anti-influenza inhibitory activity (result in words): significantly reduced the activity
  EC50: > 100 µM

## CC(C)(C)OC(=O)N[C@@H](CC(N)=O)C(=O)N1CCC(Sc2ccnc3ccccc23)CC1 [Compound 12b, (S)-tert-Butyl (4-amino-1,4-dioxo-1-(4-(quinolin-4-ylthio)piperi-din-1-yl)butan-2-yl)carbamate]
[1]
  EC50: > 100 µM

## CCOC(=O)N1CCC(Sc2ccc(OC)cc2)CC1 [Compound 1e, Ethyl 4-((4-methoxyphenyl)thio)piperidine-1-carboxylate]
[1]
  anti-influenza inhibitory activity (result in words): moderate inhibitory activities

## CCOC(=O)N1CCC(Sc2ccnc3ccccc23)CC1 [Compound P114F5, ethyl 4-(quinolin-4-ylthio)piperidine-1-carboxylate]
[2]
  EC50: 8.78 µM
[3]
  EC50: 9.05 µM
[4]
  EC50: 11.7 µM
Influenza B/Shenzhen/747
  EC50: 10.9 µM
[5]
  time-of-addition effect: most effective as an inhibitor of influenza virus; also recorded: no significant anti-influenza activities were observed

## c1ccc2c(OC3CCOCC3)ccnc2c1 [Compound 11j, 4-((Tetrahydro-2H-pyran-4-yl)oxy)quinolone]
[1]
  EC50: > 100 µM

## CCOC(=O)N1CCC(Sc2cc(-c3ccccc3)nc3ccccc23)CC1 [Compound 1a, Ethyl 4-((2-phenylquinolin-4-yl)thio)piperidine-1-carboxylate]
[1]
  inhibition to influenza virus at 100 μM: did not show any inhibition

## CCOC(=O)N1CCC(Sc2ccc(C)cc2)CC1 [Compound 1d, Ethyl 4-(p-tolylthio)piperidine-1-carboxylate]
[1]
  anti-influenza inhibitory activity (result in words): moderate inhibitory activities

## CC(C)(C)OC(=O)N[C@@H](Cc1ccccc1)C(=O)N1CCC(Sc2ccnc3ccccc23)CC1 [Compound 12a, (S)-tert-Bbutyl (1-oxo-3-phenyl-1-(4-(quinolin-4-ylthio)piperidin-1-yl)propan-2-yl)carbamate]
[1]
  EC50: 15.5 µM

## CCOC(=O)N1CCC(Oc2ccnc3ccccc23)CC1 [Compound 6a, Ethyl 4-(quinolin-4-yloxy)piperidine-1-carboxylate]
[1]
  anti-influenza inhibitory activity (result in words): good inhibitory activity
  fold improvement of inhibitory activity over HTS hit P114F5: 6 fold

## CCOC(=O)N1CCC(Sc2cccc3ccccc23)CC1 [Compound 1f, Ethyl 4-(naphthalen-1-ylthio)piperidine-1-carboxylate]
[1]
  anti-influenza inhibitory activity (result in words): moderate inhibitory activities

## CCOC(=O)N1CCC(Sc2ccncc2)CC1 [Compound 1c, Ethyl 4-(pyridin-4-ylthio)piperidine-1-carboxylate]
[1]
  inhibition to influenza virus at 100 μM: did not show any inhibition

## CC(C)(C)OC(=O)N1CCC(Oc2ccnc3ccccc23)CC1 [Compound 11e, tert-Butyl 4-(quinolin-4-yloxy)piperidine-1-carboxylate]
[1]
  fold improvement of inhibitory activity over HTS hit P114F5: 100 fold
[2]
  EC50: 0.07 µM
[3]
  EC50: 0.1 µM
[4]
  EC50: 0.06 µM
Influenza B/Shenzhen/747
  EC50: 0.05 µM
[6]
  MDL50 (μM) mean ± SD: 10061.92 ± 235.86 µM
[7]
  MDL50 (μM) mean ± SD: 8101.97 ± 473.16 µM
[8]
  MDL50 (μM) mean ± SD: 8850.21 ± 406.99 µM
[9]; any of the cell lines, up to a concentration of millimolar (mM) range, MTT
  cytotoxicity (result in words): did not exhibit cytotoxicity; also recorded: did not observe cytotoxicity
[9]; based on cytotoxicity measured by MTT assays of three cell lines
  selectivity index value (SI = MLD50/EC50): over 160,000

## CCOC(=O)N1CCC(Sc2cc(Cl)nc3ccccc23)CC1 [Compound 1b, Ethyl 4-((2-chloroquinolin-4-yl)thio)piperidine-1-carboxylate]
[1]
  anti-influenza inhibitory activity (result in words): moderate inhibitory activities

From publication PMC4177008 (Organic & biomolecular chemistry, 2014)
